Laboratory results as given in US20230241071A1, “COMBINATION TREATMENT OF LIVER DISORDERS” (Terns Pharmaceuticals, Inc., priority 2021, published 2023).
Values joined by “and” are separate entries in the source; they are usually repeats but may differ in a detail not shown here. Identical values can stand only once. “Also recorded” adds a separate entry of the source.

Assays:
[1] = Trough plasma compound levels in DIO-GAN mice; type: in vivo, mouse; conditions: plasma 21-24 h post final dose
Method: Terminal plasma samples were harvested by cardiac puncture approximately 21-24 hours after the last administration of compound(s). Terminal plasma samples were analyzed by high resolution LC-MS/MS using a Triple Quad 6500+ instrument. 20 μL of plasma sample was mixed with 200 μL of internal standard solution (100 ng/mL Labetalol+100 ng/mL Tolbutamide in acetonitrile), vortexed, and centrifuged at 4,000 rpm for 15 min at 4° C. […] The internal standard 1 (retention time: 0.87 min) and standard 2 (retention time: 0.96 min) were used for quantification of Compound 3 (retention time: 0.87 min) and Compound 2 (retention time: 0.97 min), respectively. The internal standard (retention time: 0.76 min), was used for quantification of the glucuronide metabolite of Compound 3 (retention time: 0.77 min). Calibration curves (1-3000 ng/mL) were generated in a matrix of mouse plasma (pooled vehicle control) for each analyte.

DIO-GAN NASH mouse model = assay: Biopsy-confirmed DIO-GAN NASH mice, 12 weeks mono- and combination treatment; type: in vivo; conditions: for Histological steatosis score: mice improving 1-pt / Histological steatosis score: mice with no change / Liver fibrosis stage: mice improving / Liver fibrosis stage: mice with no change / Liver fibrosis stage: mice worsening / Lobular inflammation: mice improving / Lobular inflammation: mice with no change / Lobular inflammation: mice worsening / NAS: mice improving 1-pt / NAS: mice with no change / NAS: mice worsening ≥1-pt / Histological steatosis score: mice improving >2-pt / Histological steatosis score: mice improving, Total (at least 1-pt) / NAS: mice improving ≥2-pt / NAS: mice improving, Total (≥1-pt): alone or (Combo) + Compound 3 10 mg/kg
Text: C57BL/6JRj male mice (n=138) were fed the Gubra Amylin NASH (GAN) diet (40% fat, 22% fructose, 2% cholesterol [D09100310, Research Diets]) or lean chow diet for 35 weeks before treatment start. Prior to treatment all animals underwent liver biopsy for histological confirmation (steatosis score ≥2 and fibrosis stage ≥1) and stratification using the nonalcoholic fatty liver disease (NAFLD) activity scoring (NAS) and fibrosis staging system. The diet-induced obese mice on GAN diet (DIO-GAN) were randomized to 8 treatment groups […] based on percent-area of picrosirius red (PSR) staining. DIO-GAN mice (n=16 per group) received treatment (PO, QD) for 12 weeks with vehicle (0.5% HPMC+0.2% Tween-80 in Tris buffer [50 mM, pH 8]), Compound 3 (10 mg/kg), Compound 2 (0.3 mg/kg [low], 2 mg/kg [med], or 10 mg/kg [high]), or combination treatments of Compound 3 with Compound 2 (Combo-low, Combo-med or Combo-high). Vehicle-dosed lean chow-fed controls served as healthy controls (n=10). Mice were maintained on their respective diets (GAN or lean chow) for the duration of the study. Within-subject comparisons (pre- vs. post-treatment) were performed for liver biopsy histopathological scores. Terminal quantitative endpoints included plasma/liver biochemistry, liver histomorphometry, and liver transcriptomic analysis by RNAseq.
Formalin-fixed paraffin-embedded (FFPE) liver biopsies were prepared by placing liver samples into 10% neutral buffered formalin for ˜24 hours and then transferred to 70% ethanol prior to storage at 4 C. FFPE were placed in the Histokinette to infiltrate prior to embedding in blocks. Biopsy tissues were then cut at 3 μm using a microtome and sections were mounted on slides. Liver sections were stained with Hematoxylin and Eosin (H&E) to assess steatosis, inflammation, and ballooning, and PSR to assess fibrosis. Additionally, slides were processed to detect type I collagen (Col1a1), galectin-3 (Gal-3), and smooth muscle actin (α-SMA) protein expression by immunohistochemistry (IHC). For H&E staining, slides were incubated in Mayer's Hematoxylin (Dako), washed with tap water, stained in Eosin Y solution (Sigma-Aldrich), dehydrated, and coverslipped. For PSR, slides were incubated in Weigert's iron hematoxylin (Sigma-Aldrich), washed in tap water, stained in Picro-sirius red (Sigma-Aldrich), and washed twice in acidified water. Excess water was removed by shaking the slides and the slides were then dehydrated with ethanol, cleared in xylene, and cover-slipped. The NAS and fibrosis stage were scored as described previously (Kleiner et al. 2005). NAS represents the unweighted sum of steatosis, inflammation, and ballooning scores and ranges for 0-8 (Table 26); fibrosis stage ranges from 0 (no fibrosis) to 4 (cirrhosis). For detection of Col1a1, Gal-3 and α-SMA, IHC was performed by standard procedures. Briefly, after antigen retrieval and blocking of endogenous peroxidase activity, slides were incubated with primary antibody (Col1a1: Southern Biotech, Cat. 1310-01; Gal-3: Biolegend, Cat. 125402; α-SMA: Abcam Cat. Ab124964). Primary antibody was detected using a polymeric HRP-linker antibody conjugate. Primary antibody was visualized with DAB as chromogen. Finally, sections were counterstained in hematoxylin and cover-slipped.
Terminal blood was harvested by cardiac puncture from mice anesthetized with isoflurane (2-3%), mixed with anticoagulant, and placed at 4 C prior to centrifugation at 3000×g for 10 minutes. Plasma supernatants were transferred to new tubes and immediately frozen on dry ice and stored at −80 C. Alanine transaminase (ALT), Aspartate transaminase (AST), Alkaline phosphatase (ALP), Triglycerides (TGs), Total Cholesterol (TC), High-density lipoprotein (HDL-c), and Low-density lipoprotein (LDL-c) were measured using commercial kits (Roche Diagnostics) on the Cobas c 501 autoanalyzer according to manufacturer's instructions. […]

[2] = 12 wk PO QD, vs DIO-GAN vehicle control
[3] = 12 wk PO QD, high: Compound 2 10 mg/kg
[4] = 12 wk PO QD, high: Compound 2 10 mg/kg, 10 mg/kg
[5] = 12 wk PO QD, low: Compound 2 0.3 mg/kg
[6] = 12 wk PO QD, med: Compound 2 2 mg/kg

Q: For N#Cc1nn(-c2cc(Cl)c(Oc3n[nH]c(=O)c4ccccc34)c(Cl)c2)c(=O)[nH]c1=O [Compound 2, 2-(3,5-dichloro-4-((4-oxo-3,4-dihydrophthalazin-1-yl)oxy)phenyl)-3,5-dioxo-2,3,4,5-tetrahydro-1,2,4-triazine-6-carbonitrile], which “Mean trough analyte concentration (SD)” value ([1]; group Combo-high, Compound 3 10 mg/kg + Compound 2 10 mg/kg (14)) is on record?
A: 143.0 (87.9) ng/mL

Q: What about the “Mean trough analyte concentration (SD)” value ([1]; group Combo-med, Compound 3 10 mg/kg + Compound 2 2 mg/kg (16)) of the same compound?
A: 49.5 (42.9) ng/mL

Q: And the “Mean trough analyte concentration (SD)” value ([1]; group Compound 2-high 10 mg/kg (16))?
A: 320.0 (189.9) ng/mL

Q: What about the “Mean trough analyte concentration (SD)” value ([1]; group Compound 2-med 2 mg/kg (15)) of the same compound?
A: 135.5 (62.0) ng/mL

Q: And the “hepatomegaly (liver weight)” value (DIO-GAN NASH mouse model; [2])?
A: significantly reduced hepatomegaly

Q: What about the spleen weight (DIO-GAN NASH mouse model; [2]) of the same compound?
A: without changes in spleen weight

Q: What about the “total cholesterol (plasma)” value (DIO-GAN NASH mouse model; [2]) of the same compound?
A: significantly reduced total cholesterol

Q: What about the “ALT levels relative to DIO-GAN vehicle control” value (DIO-GAN NASH mouse model; 12 wk PO QD, Compound 2 low, med, and high) of the same compound?
A: significantly reduced; also recorded: significantly lowered ALT levels

Q: What about the plasma triglycerides (DIO-GAN NASH mouse model; 12 wk PO QD, Compound 3 10 mg/kg, Compound 2-high 10 mg/kg, combinations) of the same compound?
A: significantly reduced plasma triglycerides

Q: What about the “α-SMA (IHC), marker of hepatic stellate cell activation” value (DIO-GAN NASH mouse model; 12 wk PO QD, Compound 3, Compound 2-low and -med, Combo-low) of the same compound?
A: Numeric reductions

Q: What about the “Histological steatosis score: mice improving 1-pt” value (DIO-GAN NASH mouse model; [3]) of the same compound?
A: 75%

Q: And the “Histological steatosis score: mice with no change” value (DIO-GAN NASH mouse model; [3])?
A: 18.75%

Q: What about the “Liver fibrosis stage: mice improving” value (DIO-GAN NASH mouse model; [3]) of the same compound?
A: 6.25%

Q: And the “Liver fibrosis stage: mice with no change” value (DIO-GAN NASH mouse model; [3])?
A: 68.75%

Q: And the “Liver fibrosis stage: mice worsening” value (DIO-GAN NASH mouse model; [3])?
A: 25%

Q: What about the “Lobular inflammation: mice improving” value (DIO-GAN NASH mouse model; [3]) of the same compound?
A: 12.5%

Q: What about the “Lobular inflammation: mice with no change” value (DIO-GAN NASH mouse model; [3]) of the same compound?
A: 56.25%

Q: And the “Lobular inflammation: mice worsening” value (DIO-GAN NASH mouse model; [3])?
A: 31.25%

Q: What about the “NAS: mice improving 1-pt” value (DIO-GAN NASH mouse model; [3]) of the same compound?
A: 37.5%

Q: What about the “NAS: mice with no change” value (DIO-GAN NASH mouse model; [3]) of the same compound?
A: 31.25%

Q: And the “NAS: mice worsening ≥1-pt” value (DIO-GAN NASH mouse model; [3])?
A: 6.25%

Q: And the “Histological steatosis score: mice improving >2-pt” value (DIO-GAN NASH mouse model; [4])?
A: 6.25%

Q: What about the “Histological steatosis score: mice improving, Total (at least 1-pt)” value (shortened to “Histological steatosis score … (at least 1-pt)”) (DIO-GAN NASH mouse model; [4]) of the same compound?
A: 81% and 81.25%

Q: And the “NAS: mice improving ≥2-pt” value (DIO-GAN NASH mouse model; [4])?
A: 25%

Q: What about the “NAS: mice improving, Total (≥1-pt)” value (DIO-GAN NASH mouse model; [4]) of the same compound?
A: 62% and 62.5%

Q: What about the “Histological steatosis score: mice improving 1-pt” value (DIO-GAN NASH mouse model; [5]) of the same compound?
A: 25%

Q: And the “Histological steatosis score: mice improving >2-pt” value (DIO-GAN NASH mouse model; [5])?
A: 6.25%

Q: What about the “Histological steatosis score … (at least 1-pt)” value (DIO-GAN NASH mouse model; [5]) of the same compound?
A: 31% and 31.25%

Q: And the “Histological steatosis score: mice with no change” value (DIO-GAN NASH mouse model; [5])?
A: 68.75%

Q: What about the “Liver fibrosis stage: mice improving” value (DIO-GAN NASH mouse model; [5]) of the same compound?
A: 6.25%

Q: And the “Liver fibrosis stage: mice with no change” value (DIO-GAN NASH mouse model; [5])?
A: 62.5%

Q: What about the “Liver fibrosis stage: mice worsening” value (DIO-GAN NASH mouse model; [5]) of the same compound?
A: 31.25%

Q: And the “Lobular inflammation: mice improving” value (DIO-GAN NASH mouse model; [5])?
A: 6.25%

Q: And the “Lobular inflammation: mice with no change” value (DIO-GAN NASH mouse model; [5])?
A: 68.75%

Q: And the “Lobular inflammation: mice worsening” value (DIO-GAN NASH mouse model; [5])?
A: 25%

Q: What about the “NAS: mice improving 1-pt” value (DIO-GAN NASH mouse model; [5]) of the same compound?
A: 31.25%

Q: And the “NAS: mice improving ≥2-pt” value (DIO-GAN NASH mouse model; [5])?
A: 0%

Q: What about the “NAS: mice improving, Total (≥1-pt)” value (DIO-GAN NASH mouse model; [5]) of the same compound?
A: 31% and 31.25%

Q: And the “NAS: mice with no change” value (DIO-GAN NASH mouse model; [5])?
A: 56.25%

Q: What about the “NAS: mice worsening ≥1-pt” value (DIO-GAN NASH mouse model; [5]) of the same compound?
A: 12.5%

Q: And the “Histological steatosis score: mice improving 1-pt” value (DIO-GAN NASH mouse model; [6])?
A: 40%

Q: What about the “Histological steatosis score: mice improving >2-pt” value (DIO-GAN NASH mouse model; [6]) of the same compound?
A: 6.7%

Q: What about the “Histological steatosis score … (at least 1-pt)” value (DIO-GAN NASH mouse model; [6]) of the same compound?
A: 47% and 46.7%

Q: And the “Histological steatosis score: mice with no change” value (DIO-GAN NASH mouse model; [6])?
A: 53.33%

Q: And the “Liver fibrosis stage: mice improving” value (DIO-GAN NASH mouse model; [6])?
A: 13.33%

Q: What about the “Liver fibrosis stage: mice with no change” value (DIO-GAN NASH mouse model; [6]) of the same compound?
A: 60%

Q: And the “Liver fibrosis stage: mice worsening” value (DIO-GAN NASH mouse model; [6])?
A: 26.7%

Q: What about the “Lobular inflammation: mice improving” value (DIO-GAN NASH mouse model; [6]) of the same compound?
A: 6.7%

Q: What about the “Lobular inflammation: mice with no change” value (DIO-GAN NASH mouse model; [6]) of the same compound?
A: 73.3%

Q: What about the “Lobular inflammation: mice worsening” value (DIO-GAN NASH mouse model; [6]) of the same compound?
A: 20%

Q: What about the “NAS: mice improving 1-pt” value (DIO-GAN NASH mouse model; [6]) of the same compound?
A: 20%

Q: And the “NAS: mice improving ≥2-pt” value (DIO-GAN NASH mouse model; [6])?
A: 7% and 6.7%

Q: And the “NAS: mice improving, Total (≥1-pt)” value (DIO-GAN NASH mouse model; [6])?
A: 27% and 26.7%

Q: What about the “NAS: mice with no change” value (DIO-GAN NASH mouse model; [6]) of the same compound?
A: 73.33%

Q: And the “NAS: mice worsening ≥1-pt” value (DIO-GAN NASH mouse model; [6])?
A: 0%

Q: What about the “number of DEGs vs DIO-GAN vehicle control” value (DIO-GAN NASH mouse model; liver RNAseq, Compound 2-low (0.3 mg/kg)) of the same compound?
A: 987
